Assay results taken from US4368203A, “Antibiotics and derivatives thereof having β-lactamase inhibitory activity and production thereof” (priority 1977, dated 1983).
≈ marks a conversion by molar mass, not a printed value.

What was measured:
Citrobacter freundii E-9 = assay: Potentiating and synergistic effect, pulp disc inhibition zone on agar plate; assay type: cell-based; settings: Table 6, disc 20 μl, PS-6 240 μg/ml, reference antibiotics 10,000 μg/ml
Protocol: (§1) 10 ml of 2.5 folds diluted nutrient agar (pH 7.0) containing 50 μg/ml of penicillin G or cephaloridine was seeded with the β-lactamase producing and β-lactam-resistant microorganisms and poured in a 9 cm Petri dish to provide the bio-assay agar plate. On this assay plate, 8 mm of pulp discs each containing 20 μl of antibiotic PS-6 solution at the concentration of 240 μg/ml were placed and incubated at 35° C. for 18 hours before reading the inhibition zones. A control assay plate was similarly prepared without penicillin G or cephaloridine. As reference antibiotics, 10,000 μg/ml of penicillin G or 20 μl of cephaloridine were disc-assayed under the same conditions.

Serratia marcescens S-18 = assay: as above; assay type: cell-based; settings: Table 6, disc 20 μl, PS-6 240 μg/ml, reference antibiotics 10,000 μg/ml
Protocol: as §1

[1] = system: Staphylococcus aureus Smith; assay: In vivo activity in intraperitoneally infected mice; design: species or system DDY male mice; settings: for ED50: Staphylococcus aureus, sc, mice infected i.p. with 5×10^5 cells/mouse, subcutaneous injection just after infection, read-out: 50% curative dose (CD50); for Therapeutic effect in infected mice: mice infected with pathogenic Gram-positive bacteria
Protocol: Soon after infection, an aqueous solution of the antibiotic PS-5 sodium salt preparation was subcutaneously injected.
Activity of the antibiotic PS-7 obtained above was determined using mice infected with Staphylococcus aureus Smith at 5×10^5 cells a mouse intraperitoneally. Sodium salt of the antibiotic PS-7 was administered to the mice subcutaneously immediately after the infection.
The tritylation product of antibiotic PS-6 was subcutaneously injected just after infection. The 50% curative dose on male DDY mice (SHIZUOKA) was 5.5 mg/kg.
The tritylation product of antibiotic PS-7 was subcutaneously injected just after infection. The 50% curative dose on make DDY mice (SHIZUOKA) was 4.5 mg/kg.

[2] = system: Inducible penicillinase of Bacillus cereus 569 (ATCC 27348); assay: Susceptibility to beta-lactamase as enzymic substrate; assay type: biochemical; settings: for Km: 30° C., pH 6.8 phosphate buffer, decrease of optical density at 301 nm (PS-6) or 308 nm (PS-7); for Behavior against β-lactamase: β-lactamase of Bacillus cereus
Protocol: (b) Inducible penicillinase of Bacillus cereus 569 (ATCC 27348). This beta-lactamase was induced by ampicillin and purified by CM-cellulose column chromatography.
Time course of the hydrolysis was traced at 30° C. by determining the decrease in optical density at 301 nm which corresponds specifically to the concentration of antibiotic PS-6. As described in Japanese Patent Application No. 94651/77, the antibiotic PS-5 sodium salt preparation gave a E1 cm^1% value of 267.5 at the λmax of 301 nm. If this preparation contained no water of crystallization, its epsilon value would be 8560.
As 5% of the initial optical density of antibiotic PS-5 at 301 nm remained even after the complete decomposition with hydroxylamine or beta-lactamase, the differential optical density of this substrate at 301 nm was supposed to be Δε=8132. This was supposed to be applicable to the antibiotic PS-6, and the following calculation was carried out.
(b) Inducible penicillinase of Bacillus cereus 569. Time course of the hydrolysis of antibiotic PS-6 by this beta-lactamase was followed under the above-described conditions by determining the optical density at 301 nm of the reaction mixtures containing 7.5 μl of the above mentioned enzyme preparation and […] of antibiotic PS-6 as the substrate in a total of 3.0 ml (final concentration of antibiotic PS-6=[…]/ml=8.63 μg/ml; optical density at 301 nm=0.366).
The behavior of the antibiotic PS-7 (sodium salt) against the induced-type penicillinase produced by Bacillus careus 569 (ATCC 27348) as the substrate was examined according to the following method:
Sodium salt of the antibiotic PS-7 was dissolved in 100 mM phosphate buffer solution (pH 6.8) at the indicated concentration.
The induced-type penicillinase of Bacillus cereus 569 (ATCC 27348) was induced by Ampicillin and partially purified by CM cellulose (Brown Co.) column chromatography.
The solution of the antibiotic PS-7 that was served as the substrate was warmed at 30° C. […] The reaction was carried out at 30° C. and a decrease in the substrate, antibiotic PS-7, was monitered by the absorbance at 308 nm.
A balance of absorbance at 308 nm was determined to be ε=9720 on the assumption that the ε value of the antibiotic PS-7 is 10,800 based on the decrease in the absorbance when pure preparation of the antibiotic PS-7 was completely decomposed by the enzyme above mentioned.
A reaction mixture containing 10 μl of the penicillinase preparation and 102 mμ moles of the antibiotic PS-7 (final concentration: 34 mμ moles/ml) in a total volumn of 3.0 ml was incubated under the conditions mentioned above and change of decreasing concentration of the antibiotic PS-7 was measured in relation to the incubation time.

[3] = system: Gram-positive and Gram-negative bacteria; assay: Antibiotic spectra (summary in words); assay type: cell-based; settings: for Antibiotic activity against Gram-negative bacteria resistant to β-lactam antibiotics: genera Citrobacter, Proteus, Klebsiella, Enterobacter, Serratia as named at the place; for Antibiotic activity against Gram-positive bacteria: genera Staphylococcus, Diplococcus, Streptococcus, Bacillus as named at the place
[4] = system: Klebsiella pneumoniae K-2; assay: MIC, broth dilution method; settings: Klebsiella pneumoniae, K2, 20 h, read-out: Minimum inhibitory concentration
[5] = system: Enterobacter aerogenes E-19; assay: MIC, broth dilution method; settings: Klebsiella aerogenes, E19, 20 h, read-out: Minimum inhibitory concentration
Proteus vulgaris P-5 = assay: MIC, broth dilution method; settings: Proteus vulgaris, P5, 20 h, read-out: Minimum inhibitory concentration
Proteus rettgeri P-7 = assay: MIC, broth dilution method; settings: Providencia rettgeri, P7, 20 h, read-out: Minimum inhibitory concentration
[6] = system: Diplococcus pneumoniae Type III; assay: MIC, broth dilution method; assay type: cell-based; settings: Streptococcus pneumoniae; Table 7; no unit in the head; horse serum in the medium at 10%; read-out: Minimum inhibitory concentration
[7] = agar containing 50 μg/ml of cephaloridine
[8] = agar containing 50 μg/ml of penicillin G

Row | SMILES | zone of inhibition at 240 µg/mL (Citrobacter freundii E-9; Citrobacter freundii, E9, 18 h, plate without penicillin G or cephaloridine, read-out: Inhibition zone, Control) | Inhibition zone, with cephaloridine (Citrobacter freundii E-9; [7]) | Inhibition zone, with penicillin G (Citrobacter freundii E-9; [8]) | zone of inhibition at 240 µg/mL (Serratia marcescens S-18; Serratia marcescens, S18, 18 h, plate without penicillin G or cephaloridine, read-out: Inhibition zone, Control) | Inhibition zone, with cephaloridine (Serratia marcescens S-18; [7]) | Inhibition zone, with penicillin G (Serratia marcescens S-18; [8]) | ED50 [1] | Therapeutic effect in infected mice [1] | Km [2] | Behavior against β-lactamase [2] | Antibiotic activity against Gram-negative bacteria of the genera Klebsiella, Proteus [3] | Antibiotic activity against Gram-negative bacteria of the genus Alcaligenes (Comamonas) [3] | Antibiotic activity against Gram-negative bacteria resistant to β-lactam antibiotics [3] | Antibiotic activity against Gram-positive bacteria [3] | MIC [4] | MIC [5] | MIC (Proteus vulgaris P-5) | MIC (Proteus rettgeri P-7) | MIC [6]
1 | CC(=O)NCCSC1=C(C(=O)O)N2C(=O)C(C(C)C)C2C1 (centres unmarked) [Antibiotic PS-6] | 22 mm | 25.0 mm | 23.0 mm | 20 mm | 26.0 mm | 22.0 mm | 5.2 mg/kg | marked therapeutic effect | 17.7 µM | inactivated | good activity | very strong activity | strong activity | very strong activity | 12.5 µg/mL (≈ 40 µM) | 25 µg/mL (≈ 80 µM) | 25 µg/mL (≈ 80 µM) | 6.25 µg/mL (≈ 20 µM) | 
2 | CCC1C(=O)N2C(C(=O)O)=C(SC=CNC(C)=O)CC12 (centres unmarked) [Antibiotic PS-7] |  |  |  |  |  |  | 7.5 mg/kg | marked therapeutic effect | 13 µM | inactivated |  | high antimicrobial activity | high antimicrobial activity | very high antimicrobial activity |  |  |  |  | < 0.19 µg/mL
